Converted amounts (≈) assume the structure as drawn.
Columns and labels:
[1] = target: T1, pyranosone dehydratase (PD) (Phanerodontia chrysosporium, UniProt P84193); assay: Conversion of AF or glucosone by PD, monitored at 226nm; assay type: biochemical, Phanerochaete chrysosporium; details: for OD226nm: 22°C, 5.5 hours
T1 construct: from tissue; host or cells: Phanerochaete chrysosporium (enzyme purified from the fungus' cell-free extract)
T1 sequence (P84193 8-900 limits assumed): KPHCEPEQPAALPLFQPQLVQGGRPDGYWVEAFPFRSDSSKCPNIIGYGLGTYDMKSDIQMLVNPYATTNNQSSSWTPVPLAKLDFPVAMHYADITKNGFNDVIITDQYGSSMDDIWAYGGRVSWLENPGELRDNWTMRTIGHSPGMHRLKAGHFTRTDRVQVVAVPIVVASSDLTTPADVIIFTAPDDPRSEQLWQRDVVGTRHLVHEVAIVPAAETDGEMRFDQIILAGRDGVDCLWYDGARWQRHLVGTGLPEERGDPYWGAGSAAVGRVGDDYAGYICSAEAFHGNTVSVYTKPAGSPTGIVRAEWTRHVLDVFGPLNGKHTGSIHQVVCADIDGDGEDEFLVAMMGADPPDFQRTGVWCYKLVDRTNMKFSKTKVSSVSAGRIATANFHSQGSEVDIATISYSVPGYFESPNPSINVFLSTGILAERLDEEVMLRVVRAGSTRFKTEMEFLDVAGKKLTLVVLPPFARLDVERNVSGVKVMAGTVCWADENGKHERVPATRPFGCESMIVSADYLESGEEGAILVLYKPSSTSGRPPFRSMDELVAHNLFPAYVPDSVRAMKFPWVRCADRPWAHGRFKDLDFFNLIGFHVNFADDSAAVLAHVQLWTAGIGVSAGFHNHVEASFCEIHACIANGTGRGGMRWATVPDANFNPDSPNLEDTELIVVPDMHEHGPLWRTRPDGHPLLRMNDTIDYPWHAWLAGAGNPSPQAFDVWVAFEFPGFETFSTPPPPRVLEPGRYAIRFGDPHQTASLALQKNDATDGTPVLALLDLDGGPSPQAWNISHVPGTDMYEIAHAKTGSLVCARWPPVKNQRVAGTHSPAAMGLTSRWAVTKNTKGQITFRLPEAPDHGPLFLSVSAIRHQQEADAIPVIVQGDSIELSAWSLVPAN
Description: The reaction system consisted of AF or glucosone 1-15µl, 25µl sodium phosphate buffer (6.5. 0.1M), water, 1.4µl PD to a final volume of 200µl. The reaction was performed at 22°C for 5.5 hours. The formation of microthecin from AF and cortalcerone from glucosone were monitorered at 226nm.

[2] = system: sugar beet seeds; assay: Laboratory germination of pelleted sugar beet seeds; assay type: in vivo; details: result in words
[3] = system: Aphanomyces; assay: Field emergence trial (Trial FEHCP034 Aphanomyces); assay type: in vivo, sugar beet; details: pellets containing the substance, result in words
Source text: Based on these findings, the efficiency of microthecin was further investigated in a field emergence trial. The trial was sown relatively late giving it a higher chance for presence of the pathogen Aphanomyces in the trial field.
Seeds were pelleted with standard P1 pelleting mass with (1,2) or without (7,8)Thiram.
Inner coating: 0,3gai/U microthecin as a 0,5% solution in water or 14,7gai/U Hymexazol. 60gai/U Imidacloprid. Standard metallic green seed cover film.
The following combinations were included in the trial: R F0 Without fungicides R FT With Thiram (in pellet) R FH With Hymexazol R FM With Microthecin R P1 STD With Thiram (in pellet) + Hymexazol R FTM With Thiram (in pellet) + Microthecin Trial place Bukkehave, DK. (4 reps, 200 seeds/plot) Trial sown 21.05.2002 1. Count 28.05.2002 (speed) 2. Count 29.05.2002 (speed) 3. Count 24.06.2002 (final)

[4] = system: Aphanomyces cochlioides; assay: Agar plate inhibition zone test (PDA medium); assay type: cell-based; details: judged after 3-4 days of growth, read-out: minimum inhibition concentration (mic)
Description: (§1) A circular plug (diameter 10 mm) of fresh mycelium was placed at the centre on a petri-dish (diameter 9 cm) containing PDA medium. (PDA= Potato dextrose agar Difco no. 213400). Wells with a diameter of 5 mm were cut along the periphery of the agar plate. In each well were placed 50 µl of a test solution. Alternatively, 20 µl of each test solution were placed directly on the agar along the periphery of the plate. Also, 50µl of each test solution were placed directly on top of the fungal mycelium plug.
(§2) The agar plates were placed at room temperature in daylight, but protected from direct sunlight.
(§3) The reaction (inhibition zones) of the fungi to the test substance was judged as follows: Rhizoctonia solani: after 2-3 days of growth Pythium ultimum: after 1-2 days of growth Aphanomyces cochlioides: after 3-4 days of growth Cercospora beticola after 3-4 weeks of growth

[5] = system: Cercospora beticola; assay: Agar plate inhibition zone test (PDA medium); assay type: cell-based; details: judged after 3-4 weeks of growth, read-out: minimum inhibition concentration (mic)
Description: as §1, §2, §3

[6] = system: Pythium ultimum; assay: Agar plate inhibition zone test (PDA medium); assay type: cell-based; details: Globisporangium ultimum; judged after 1-2 days of growth; read-out: minimum inhibition concentration (mic)
Description: as §1, §2, §3

[7] = system: Rhizoctonia solani; assay: Agar plate inhibition zone test (PDA medium); assay type: cell-based; details: judged after 2-3 days of growth, read-out: minimum inhibition concentration (mic)
Description: as §1, §2, §3

[8] = system: Aphanomyces cochlioides; assay: Screening for growth inhibition on agar-plates (Example 4); assay type: cell-based; details: very low concentrations; in wells on PDA-agar plates, 3-5 days
Description: The effect of microthecin on the plant pathogenic fungi Pythium ultimum, Rhizoctonia solani and Aphanomyces cochlioides in vitro was investigated by screening for growth inhibition of the pathogens on agar-plates (Figures 6, 7, 8).
(§4) In each case, microthecin was dissolved in water and placed in wells in the periphery. An agar block containing the pathogen was placed in the centre. The pathogens were allowed to grow out on the PDA-agar plates for 3-5 days.

[9] = system: B. Pumilus DS96.734; assay: Similar growth tests with other microorganisms (Example 4); assay type: cell-based
Description: as §4

[10] = system: B. megaterium DS98.124; assay: as above; assay type: cell-based
Description: as §4

[11] = system: Cercospora; assay: as above; assay type: cell-based
Description: as §4

[12] = system: P. fluorescens DS96.578; assay: as above; assay type: cell-based
Description: as §4

[13] = system: P. mendocina DS98.124; assay: as above; assay type: cell-based
Description: as §4

[14] = final substrate concentration 13.7 µg/ml reaction mixture
[15] = final substrate concentration 27.4 µg/ml reaction mixture
[16] = final substrate concentration 41.1 µg/ml reaction mixture
[17] = final substrate concentration 68.4 µg/ml reaction mixture
[18] = final substrate concentration 95.8 µg/ml reaction mixture
[19] = final substrate concentration 137 µg/ml reaction mixture
[20] = final substrate concentration 205 µg/ml reaction mixture

O=CC(=O)[C@@H](O)[C@H](O)[C@H](O)CO [Glucosone, D-arabino-hexos-2-ulose]
OD226nm [1, 14]: 0.069
OD226nm [1, 15]: 0.104
OD226nm [1, 16]: 0.141
OD226nm [1, 17]: 0.238
OD226nm [1, 18]: 0.323
OD226nm [1, 19]: 0.484
OD226nm [1, 20]: 0.634

O=C1CO[C@H](CO)[C@@H](O)[C@@H]1O [AF, 1,5-anhydro-D-fructose]
OD226nm [1, 14]: 0.308
OD226nm [1, 15]: 0.534
OD226nm [1, 16]: 0.76
OD226nm [1, 17]: 1.246
OD226nm [1, 18]: 1.764
OD226nm [1, 19]: 2.43
OD226nm [1, 20]: 2.943
Vmax higher with AF than with glucosone ([1]; ratio AF vs glucosone as PD substrate): around 4.7 times

Cc1cc(O)no1 [Hymexazol, reference compound]
4d>15mm germination [2]: low
speed of germination [3]: relatively slow

O=C1C=CCOC1(O)CO (stereo not drawn) [microthecin]
MIC [4]: 1200 µg/mL (≈ 8.33 mM)
MIC [5]: 2400 µg/mL (≈ 16.7 mM)
MIC [6]: 480 µg/mL (≈ 3.33 mM)
MIC [7]: 240 µg/mL (≈ 1.67 mM)
growth of Aphanomyces [8]: able to reduce the growth
effect on the growth [9]: no effect
effect on the growth [10]: no effect
effect on Cercospora [11]: no effect
effect on growth [12]: slightly affected
effect on growth [13]: slightly affected
speed of laboratory germination (4d) ([2]; inclusion in the pellet): decreases the speed of laboratory germination
final germination [3]: high final germination
speed of germination [3]: comparable with pellets only containing Thiram

Source: EP1840211A1, “Pyranosone dehydratase from phanerochaete chrysosporium” (DANISCO A/S, priority 2001, dated 2003)
